Data taken from publication PMC4301837, “Aldosterone synthase inhibition: cardiorenal protection in animal disease models and translation of hormonal effects to human subjects” (Journal of Translational Medicine, 2014).
Marks after values point to notes of the source that are not given here.

Key:
[1] = tested on: ACTH-stimulated aldosterone and corticosterone synthesis; design: method as in PMID 20354176; conditions: in vivo rat ACTH stimulation model; previous study; cited from earlier work
human CYP11B2 = tested on: human CYP11B2; design: method as in PMID 24899257; conditions: cited from earlier work
[2] = tested on: Ang II-stimulated aldosterone release; design: method as in D. Rigel, personal communication; conditions: dogs; ref D. Rigel, personal communication; read-out: EC50, inhibition of Ang II-stimulated aldosterone release; cited from earlier work
[3] = dogs, ref D. Rigel, personal communication, cited from earlier work
[4] = tested on: dTG rats with pre-established cardiorenal disease; experiment: Survival study in older, enalapril-pre-treated dTG rats with established cardiorenal disease; type: in vivo, rat; conditions: male dTG rats, 10 mg/kg/day (40 mg/L in drinking water) from 3 to 8 weeks of age
[5] = tested on: dTG rats overexpressing human renin and angiotensinogen; type: in vivo
[6] = tested on: dTG rats overexpressing human renin and angiotensinogen; experiment: Survival study in young dTG rats; type: in vivo, rat
[7] = tested on: ACTH-stimulated aldosterone, cortisol and precursors; experiment: Human ACTH (cortisol) stimulation test, multiple-dose phase; type: in vivo
healthy male volunteers [8] = experiment: Human safety and tolerability; type: in vivo; conditions: single or multiple doses
healthy male volunteers [9] = experiment: Human pharmacodynamics, multiple-dose phase
[10] = dTG rats, LCI699 3–100 mg/kg/day, eplerenone 30 mg/kg/day
[11] = eplerenone 100 mg once daily, ANCOVA mean

In the case of N#Cc1ccc([C@H]2CCCc3cncn32)cc1 [FAD286A, reference compound], the “selectivity factor by exposure, aldosterone synthase over 11β-hydroxylase” value [1] is listed as […], the IC50 (human CYP11B2; recombinant hamster fibroblasts expressing human CYP11B1 and CYP11B2, read-out: IC50, inhibition of aldosterone synthesis) is listed as […] and the “selectivity factor, inhibition of aldosterone vs cortisol synthesis” value (human CYP11B2; recombinant hamster fibroblasts) is listed as […]. The EC50 [2] was 136 nM, the oral bioavailability ([3]; 1 mg/kg oral dose) was 33% and the half-life [3] was 54 to 72 min.
With CCOC(=O)[C@H](CCc1ccccc1)N[C@@H](C)C(=O)N1CCC[C@H]1C(=O)O [enalapril, reference compound] the “prolongation of median survival by pre-treatment” value [4] was “approximately 4 months”.
In the case of COC(=O)[C@@H]1CC2=CC(=O)CC[C@]2(C)[C@@]23O[C@@H]2C[C@@]2(C)[C@@H](CC[C@@]24CCC(=O)O4)[C@H]13 [eplerenone, reference compound], the “effect on BUN levels” value ([5]; 30 mg/kg) is reported as “no significant effect”, the “effect on LV fractional shortening” value ([5]; 30 mg/kg) is reported as “no significant effect” and the “effect on LV isovolumic relaxation time to RR (IVRT/RR) ratio” value ([5]; 30 mg/kg) is reported as “no significant effect”. The “effect on urine output” value ([5]; 30 mg/kg) was “no significant effect”, the “effect on plasma aldosterone concentration” value ([5]; dTG rats treated 3 to 7 weeks of age, LCI699 3–100 mg/kg/day in drinking water, eplerenone 30 mg/kg/day in chow) was “had no effect” and the “effect on myocardial cell size” value ([5]; dTG rats, LCI699 3–100 mg/kg/day, eplerenone 30 mg/kg) was “reduced but did not normalize”. The “effect on mean arterial pressure” value [5, 10] was “neither LCI699 nor eplerenone normalized arterial pressure”, the “effect on serum potassium” value [5, 10] was “had no effect” and the “effect on urinary albumin excretion” value [5, 10] was “slightly increased”. The “effect on urinary aldosterone excretion” value [5, 10] was “significantly increased”, the “effect on LV weight” value ([5]; dTG rats, LCI699 3–100 mg/kg/day, eplerenone 30 mg/kg, data not shown) was “had no effect” and the “maximum effective dose for prolongation of survival” value ([6]; young dTG rats) was 30 mg/kg. For the same molecule, the “doses at which survival was significantly prolonged” value ([6]; young dTG rats without established cardiorenal disease, P < 0.01) was over 10 mg/kg/day, the “maximum median survival time” value ([6]; young dTG rats, dose–median survival curves) was 8.4 weeks and the “effect on ACTH-stimulated 11-DOC levels” value ([7]; LCI699 0.5 mg, eplerenone 100 mg) was “no significant effect”. The “effect on cortisol precursors (ACTH-stimulated)” value ([7]; eplerenone 100 mg and lower doses of LCI699 (0.5, 1 mg), Day 6 or Day 13) was “no significant effect”, the “increase in ACTH-stimulated peak aldosterone levels” value ([7]; eplerenone 100 mg, Day 6) was 63% and the “increase in pre-ACTH aldosterone levels 2 h post-dose vs Day −2” value ([7]; eplerenone 100 mg, Day 6) was 29%. The “changes in supine systolic or diastolic blood pressure or heart rate compared with placebo” value (healthy male volunteers [8]) was “no consistent changes”, the “Plasma potassium, Δ Day2 vs baseline (Day −1)” value (healthy male volunteers [9]; [11]) was “+0.08 mEq/L” and the “Plasma potassium, Δ Day7 vs baseline (Day −1)” value (healthy male volunteers [9]; [11]) was −0.02 mEq/L. For the same molecule, the “Plasma potassium, Δ Day14 vs Day 7” value (healthy male volunteers [9]; [11]) was −0.09 mEq/L, the “Plasma sodium, Δ Day2 vs baseline (Day −1)” value (healthy male volunteers [9]; [11]) was −0.64 mEq/L and the “Plasma sodium, Δ Day7 vs baseline (Day −1)” value (healthy male volunteers [9]; [11]) was “+0.31 mEq/L”. The “Plasma sodium, Δ Day14 vs Day 7” value (healthy male volunteers [9]; [11]) was −0.07 mEq/L, the “Urinary potassium, Δ Day 1 vs baseline (Day −1)” value (healthy male volunteers [9]; [11]) was “+5.2 mEq/24 h” and the “Urinary potassium, Δ Day 7 vs baseline (Day −1)” value (healthy male volunteers [9]; [11]) was “+6.4 mEq/24 h”. The “Urinary potassium, Δ Day 14 vs Day 7” value (healthy male volunteers [9]; [11]) was “+3.7 mEq/24 h”, the “Urinary sodium, Δ Day 1 vs baseline (Day −1)” value (healthy male volunteers [9]; [11]) was “+53.8‡ mEq/24 h” and the “Urinary sodium, Δ Day 7 vs baseline (Day −1)” value (healthy male volunteers [9]; [11]) was “+16.2 mEq/24 h”. The “Urinary sodium, Δ Day 14 vs Day 7” value (healthy male volunteers [9]; [11]) was −24.0 mEq/24 h, the “effect on plasma aldosterone concentration” value (healthy male volunteers [9]; eplerenone 100 mg, Day 1) was “had no effect” and the “increase in 24 hour urinary aldosterone” value (healthy male volunteers [9]; eplerenone 100 mg, Day 1) was 34%. The “increase in 24 h urinary aldosterone levels” value (healthy male volunteers [9]; eplerenone 100 mg, Day 7) was 118%, the “increase in PRA from baseline” value (healthy male volunteers [9]; eplerenone 100 mg, Day 7) was 92% and the “increase in plasma aldosterone” value (healthy male volunteers [9]; eplerenone 100 mg, Day 7) was 46%. For the same molecule, the “increase in 24 h urinary aldosterone levels” value (healthy male volunteers [9]; eplerenone 100 mg, Day 14) was 161%, the “increase in PRA” value (healthy male volunteers [9]; eplerenone 100 mg, Day 14) was 130% and the “increase in plasma aldosterone” value (healthy male volunteers [9]; eplerenone 100 mg, Day 14) was 63%.
